From patent US10189863B2, “5,6-dihydro-4H-benzo[b]thieno-[2,3-d]azepine derivatives” (PULMOCIDE LIMITED, priority 2014, dated 2019) come the findings set out here.

One may read the CC50 as the concentration that lowers cell viability or growth by half. Lower therefore signals greater toxicity to the cells.

Data set [1] has as its system HEp2 cells. Kind of data set: Cell viability: resazurin assay. Type of data set: cell-based, human. The following applies: 5 days. The method, boiled down:
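Viability read-out: resazurin fluorescence (ex 545, em 590 nm) after 6 h, following 5-day compound incubation of HEp2 cells (37 °C, 5% CO2, 5% FBS, 0.5% DMSO final). Loss expressed as percentage of vehicle, negative if viability rose; CC50 derived from concentration-response curve where appropriate.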
For orientation: Resazurin is reduced to fluorescent resorufin, in cell work by metabolically active cells.

For data set [2], the system named is RSV A2. Description: RSV infection in mice: virus titre in lung (plaque assay). Type of data set: in vivo, mice (male BALB/C). To be noted: for Virus titre in lung, Geometric mean / Virus titre in lung, Median: mice, day 4. The procedure: Non-fasted mice (male BALB/C, 20-30 g) were infected intranasally with RSV A2 or virus diluent (DMEM, 2% FBS, 12.5% sucrose) under isoflurane (5% in O2) anaesthesia. The A2 strain of RSV (50 μL of 1.3×10^6 PFU/mL: final 0.65×10^5 PFU/mouse) was instilled into each nostril in a drop wise fashion alternating between the two until a volume of 50 μL was delivered. Following infection each animal was weighed on a daily basis to monitor changes. Test compounds were dissolved in 100% DMSO (at 20 mg/mL and/or 2 mg/mL), then diluted at 1:10 in isotonic saline to achieve 10% DMSO in all treatments. Formulations were then sonicated to produce a suspension. The suspension was administered intratracheally (20 μL) with a FMJ-250 PennCentury device or intranasally (40 μL) with a pipette on 1 day and 1 hr before infection (day 0), and then on days 1, 2 and 3 post infection. Four days after RSV challenge, the animals were euthanised (by intraperitoneal injection of a pentobarbitone overdose), the trachea cannulated and BALF extracted for total and differential cell counts. Following BALF collection, the right lung was removed from each animal and homogenised in ice-cold Dulbecco's modified Eagles medium (using 10 times the lung weight of DMEM containing 1% BSA and 25% sucrose) for 2×20 second bursts. The homogenate was then transferred into a sterile tube and spun at 4° C. (2000 rpm; for 5 min). The clarified homogenate was transferred to a chilled cryovial, snap frozen and stored at −80° C. The supernatants from lung homogenates were used for Plaque assay.
HEp2 cells were grown in 24-well plates (Corning) for 48 hr prior to infection in DMEM containing 10% FBS until they attained 100% confluency. Lung homogenate was thawed at RT and ten-fold serial dilutions were prepared in serum-free DMEM. The growth medium from HEp2 cells was aspirated and replaced with 300 μL of serially diluted lung homogenate and left to infect (4 hr; 37° C./5% CO2). The infectious media were aspirated and replaced with Plaque Assay Overlay (500 μL; 1% methylcellulose in MEM, 2% FBS, 1% Pen Strep, 0.5 μg/mL amphotericin B), and left for 7 days (37° C./5% CO2). Cells were fixed with ice-cold methanol for 10 min and blocked with 5% powdered milk (Marvel) in 0.05% PBS-tween (blocking buffer) for 1 hr at RT.
Anti-RSV F-protein antibody [2F7] (Abcam: ab43812) was diluted to a 1:100 concentration in blocking buffer and added to cells for 1 hr at RT with shaking. Cells were washed using PBS and then incubated with the secondary antibody (HRP conjugated goat anti-mouse secondary antibody (Dako P044701-2) diluted in 1:400 with blocking buffer) for 1 hr at RT with shaking. The secondary antibody solution was removed and cells were washed with PBS before the metal-enhanced development substrate DAB was prepared in ultra-pure water (according to manufacturer's instructions). Each well received 300 μL of development substrate (sigmaFAST D0426) until plaques were visible. Plaques were counted by eye and confirmed using light microscopy, allowing the calculation of plaque forming units per mL of lung homogenate supernatant.

Data set [3] concerns RANTES gene expression. Kind of data set: RSV infection in cotton rats: RANTES gene transcripts in lung (qRT-PCR). Format: in vivo, Sigmodon hispidus cotton rats. The procedure:
RSV Infection in Cotton Rats
Male Sigmodon hispidus cotton rats between 6 and 8 weeks of age were infected with hRSV/A/Long (ATCC, Manassas, Va.; 10^5 pfu) in a volume of 0.1 mL of sucrose stabilizing media. Test compounds were dissolved in 100% DMSO (at 3.3, 10, 33 and 100 mg/mL), then diluted at 1:10 in isotonic saline to achieve 10% DMSO in all treatments. Formulations were then sonicated to produce suspensions. The resulting suspensions were administered intranasally (50 μL) by pipette 4 hr before infection (on day 0), and then on days 1, 2 and 3 post infection. Four days after RSV challenge, the animals were euthanised and the lungs were removed. The left lobe was used for viral titration via plaque assay and the lingular lobe for RSV/A/Long NS-1 qRT-PCR and cytokine qRT-PCR.
Total RNA was also extracted from homogenized lung tissue (RNeasy purification kit; Qiagen) and a sample (1 μg) was used to prepare cDNA using QuantiTect Reverse Transcription Kit (Qiagen). For real-time PCR reactions (RSV NS-1 and RANTES genes) the QuantiFast SYBR® Green PCR Kit (Qiagen) was used in a final volume of 25 μL, with final primer concentrations of 0.5 μM. […] Baseline cycles and cycle threshold (Ct) were calculated by the iQ5 software in the PCR Base Line Subtracted Curve Fit mode. […] The mRNA levels were expressed as the geometric mean±SEM for all animals in a group.

In data set [4] the test system is hRSV/A/Long. Kind of data set: RSV infection in cotton rats: virus titre in lung (plaque assay). To be noted: for Virus titre in lung, Geometric mean: cotton rats, intranasal, day 4. Type of data set: in vivo, Sigmodon hispidus cotton rats.
The mark [5] stands for this setting: intranasal, Drug Conc 0.2 mg/mL.
Setting [6] is: intranasal, Drug Conc 2 mg/mL, LOQ 1.5.
[7] abbreviates: intratracheal, Drug Conc 0.2 mg/mL, LOQ 1.5.

A value given as a limit tells only on which side of the number the result lay.

Take `Cc1cnc(N2CC3(CCOCC3)C2)c(C(=O)Nc2ccc(C(=O)N3CCc4cc(C(=O)Nc5c(C)cccc5F)sc4-c4ccccc43)cc2)c1` [Example 5, N-(2-Fluoro-6-methylphenyl)-6-(4-(5-methyl-2-(7-oxa-2-azaspiro[3.5]nonan-2-yl)nicotinamido)benzoyl)-5,6-dihydro-4H-benzo[b]thieno[2,3-d]azepine-2-carboxamide]: in data set [1], the CC50 was above 14 µM. Further, the “Effect on virus titre in the lungs (in words)” value in data set [2] (RSV A2 infected mice) and in data set [4] (RSV A2 infected cotton rats) was “completely inhibited virus titre” each time. In addition, the “Virus titre in lung, Geometric mean” value in data set [2] (setting [5]) is given as 2.4 log PFU/lung; in data set [2] (setting [6]), <1.5^2 log PFU/lung; in data set [2] (setting [7]) it was <1.5^2 log PFU/lung; in data set [4] (Drug Conc 1.0 mg/mL) it was 4.5 log, PFU/lung; in data set [4] (Drug Conc 3.3 mg/mL, LOQ 2.3), <2.3^2 log, PFU/lung. Besides, the “Virus titre in lung, Median” value is 2.5 log PFU/lung in data set [2] (setting [5]), <1.5^2 log PFU/lung in data set [2] (setting [6]) and <1.5^2 log PFU/lung in data set [2] (setting [7]). For the same compound, the “Effect on RANTES transcripts in lung (in words)” value in data set [3] is on record as “dose-dependent inhibition”. In data set [4] (hRSV/A/Long infected cotton rats on day4), the “Effect on virus titre in lung homogenates (in words)” value is reported as “potent dose-dependent inhibition of virus titre”.
